Legend:
[1] = test system: Adult rats (Sprague Dawley) with MI by LAD ligation; test: Rat myocardial infarction model: morphological studies (scar area and thickness, computed planimetry); format: in vivo; conditions: for scar areas: p<0.05 and 0.01 respectively
Source text: Animal Model and Myocardial Infarction: Adult rats (Sprague Dawley (SD), body weight, -250 g) were used to generate a model with MI by LAD ligation of the heart as described in the previous study (Chongyu Zhang, Meng-Hsuan Hsieh, Song-Yi Wu, Shu-Hong Li, Jun Wu, Shi-Ming Liu, Hao-Ji Wei, Richard D. Weisel, Hsing-Wen Sung, Ren-Ke Li, “A self-doping conductive polymer hydrogel that can restore electrical impulse propagation at myocardial infarct to prevent cardiac arrhythmia and preserve ventricular function,” Biomaterials, Volume 231, 2020, 119672, ISSN 0142-9612). In brief, each rat was pre-medicated with 5% isoflurane in a chamber.
The selected rats having similar FS were randomly divided into 6 groups: (1) Negative control group (treated with 40% SBCD); (2) Positive control group (with HBI-3802, 2 mg/kg /day); (3) Dose 1 (HBI-3808 2 mg/kg/day); (4) Dose 2 (HBI-3808 0.64 mg/kg day); (5) Dose 3 (HBI-3808 0.2 mg/kg/day); and (6) Sham control (No myocardial infarction and treated with 40% SBCD).
Morphological Studies: After cardiac functional measurements, the animals were euthanized. The hearts were rapidly excised, fixed with 10% formaldehyde for 7 days, sliced into 2 mm thick slices, and photographed.
Cross-sectional areas of the left ventricular free wall (LVFW) and scar tissue were measured using computed planimetry. Surface areas of the epicardial LVFW and scar tissue were measured as the sum of the epicardial length multiplied by the slice thickness (2 mm). The surface area percentage of scar tissue in the LVFW was calculated as follows: [(epicardial scar area)/(epicardial LVFW area)×100]. The thickness of scar area was presented as an average of wall thickness measured at the middle and at each edge of the scar from the slice having the thinnest scar.

VEGF = VEGF enrichment and angiogenesis induction by HBI-3808 conditioned media/supernatant; format: cell-based
[2] = test system: human embryonic stem cells (hESCs); test: Induction of differentiation of hESCs to cardiomyocytes; format: cell-based
Description: In order to test the effect of HBI-3808 on human embryonic stem cells (hESCs) on stimulating differentiation to cardiomyocytes (CMs), hESCs were incubated in the presence of media (see legend, FIG. 31) or 100 ng/ml HBI-3808.

[3] = Varying temperature (VT)-XRPD; format: physicochemical; conditions: heating 25 to 250° C. (ethanolamine salt to 300° C.)
Description: Varying temperature (VT)-XRPD was carried out between 25-250° C.
VT-XRPD of HBI-3808 sodium salt of Pattern 5 was carried out between 25-250° C. (FIG. 5M). […] At 150° C., the diffractogram changed and was labelled as Pattern 7, indicating formation of HBI-3808 sodium salt of Pattern 7 (see Example 7). Diffractogram of Pattern 7, was observed between 150-250° C. Upon cooling to 25° C., Diffractogram of Pattern 5 was observed again, indicating reformation of HBI-3808 sodium salt of Pattern 5. Pattern 7 has some similarities with Pattern 6 (See Example 6). Both Patterns 6 and 7 may represent anhydrous forms of the HBI-3808 sodium salt. Starting concentration of the of HBI-3808 sodium salt of Pattern 5.
VT-XRPD was carried out according to the temperature program of Table 17B. […] At 210° C., the XRPD diffractogram was consistent with poorly crystalline BBI-3808 free acid of Pattern 1. Free acid (HBI-3808) of Pattern 1 was observed between 210-240° C.

[4] = Single-dose IV and oral pharmacokinetic study in rabbits; format: in vivo, New Zealand White Rabbits; conditions: rabbit
Source text: Eight groups (n=3) of rabbits received single doses of HBI-3802 or the sodium salt (form 5) HBI-3808 either by intravenous dosing or by oral dosing. HBI-3802 was formulated in 20% PG +80% (20% Captisol in pH 7.4 PBS buffer), and HBI-3808 was formulated in 5% NMP+15% EtOH+10% Tween 80+70% (20% Captisol in pH 7.4 PBS buffer). In addition, normal or enteric coated capsules were used to orally deliver the sodium salt (form 5) of HBI-3808. To allow determination of oral absolute bioavailability, both HBI-3802 and HBI-3808 were delivered IV at a dose of 0.3 mg/kg and blood samples obtained at 0, 0.25, 0.5, 0.75, 1,2,4,8,12,24,48, and 72 hours after dosing for derivation of plasma used to determine plasma concentrations by LC-MS. The HBI-3802 0.3 mg/kg plasma concentrations were compared to plasma concentrations obtained at the same time points from rabbits receiving single oral doses of […] at 1 or 5 mg/kg. The HBI-3808 0.3 mg/kg plasma concentrations were compared to plasma concentrations from groups of rabbits receiving oral gavage of 1 mg/kg HBI-3808 solution or 5 mg/kg HBI-3808 solution and from rabbits receiving 5 mg/kg of the sodium salt (form 5) of HBI-3808 in normal capsules or in enteric coated capsules.

[5] = 0.2 mg/kg/day, control vs treated
[6] = 0.64 mg/kg/day, control vs treated
[7] = PO 5 mg/kg in enteric coated capsules

temperature range in which diffractograms consistent with the input salt were observed [3] | bioavailability ([4]; PO 1 mg/kg in 5% NMP+15% EtOH+10% tween 80+70% (20% Captisol in pH 7.4 PBS buffer)) [%] | bioavailability ([4]; PO 5 mg/kg in 5% NMP+15% EtOH+10% tween 80+70% (20% Captisol in pH 7.4 PBS buffer)) [%] | absorption onset delayed until [4, 7] [h] | bioavailability [4, 7] [%] | bioavailability ([4]; PO 5 mg/kg in normal capsules) [%] | SMILES | scar thickness [1, 5] | scar areas [1, 5] | scar thickness [1, 6] | scar areas [1, 6] | scar thickness ([1]; 2 mg/kg/day, 21 days after first treatment) | scar (infarct) areas ([1]; 2 mg/kg/day, 21 days after first treatment, p<0.01) | VEGF in media harvested from treated CMs (VEGF) | angiogenesis in supernatant of CM cell suspensions (VEGF) | differentiation of hESCs to cardiomyocytes (CMs) ([2]; 100 ng/ml HBI-3808, day 13) | modulation of cardiac-associated genes ([2]; 100 ng/ml, days 1, 3, 6, 9, 13) | dose dependence of Cmax and AUC ([4]; PO 1 and 5 mg/kg solution)
– | – | – | – | – | – | C[C@@H]1CC[C@]2(C(=O)O)CC[C@]3(C)C(=CCC4[C@@]5(C)C[C@@H](O)[C@H](O)[C@@](C)(CO)C5CC[C@]43C)C2[C@]1(C)O (some centres unmarked) [HBI-3808, 23-hydroxytormentic acid] | thinner in the control group | larger in the control group | thinner in the control group | larger in the control group | thinner in the control group | smaller infarct areas than the 2 mg/kg HBI-3802 group | enriched in VEGF | induces angiogenesis | successfully stimulated hESCs to differentiate into viable, beating CMs by day 13 | produced detectable modulation of cardiac-associated genes | –
25-115 °C | 17.9 | 27.7 | 8 | 10.9 | 10.7 | CC1CCC2(C(=O)[O-])CCC3(C)C(=CCC4C5(C)CC(O)C(O)C(C)(CO)C5CCC43C)C2C1(C)O.[Na+] (centres unmarked) [HBI-3808 sodium salt of Pattern 5, sodium salt of 23-hydroxytormentic acid] | – | – | – | – | – | – | – | – | – | – | dose proportional increases with low variability
